Measured values reported in patent publication US9783509B2, “Six-membered C-N-linked aryl sulfide derivatives and aryl sulfoxide derivatives as pest conrol agents” (BAYER CROPSCIENCE AKTIENGESELLSCHAFT, priority 2013, dated 2017).
Like-named read-outs stand apart in the source and are kept apart here.

Tests used:
[1] = test system: adult cat fleas (Ctenocephalides felis); test: Ctenocephalides felis in vitro contact test with adult cat fleas; type: in vivo; conditions: application rate 5 μg/cm^2 (=500 g/ha), after 48 h
Method: Ctenocephalides felis—In Vitro Contact Tests with Adult Cat Fleas
For the coating of the test tubes, 9 mg of active ingredient are first dissolved in 1 ml of acetone p.a. and then diluted to the desired concentration with acetone p.a. 250 μl of the solution are distributed homogeneously on the inner walls and base of a 25 ml test tube by turning and rocking on an orbital shaker (rocking rotation at 30 rpm for 2 h). With 900 ppm active ingredient solution and internal surface 44.7 cm^2, given homogeneous distribution, an area-based dose of 5 μg/cm^2 is achieved.
After the solvent has been evaporated off, the tubes are populated with 5-10 adult cat fleas (Ctenocephalides felis), sealed with a perforated plastic lid and incubated in a horizontal position at room temperature and ambient humidity. After 48 h, the efficacy is determined. To this end, the test tubes are stood upright and the fleas are knocked to the base of the tube. Fleas which remain motionless at the base or move in an uncoordinated manner are considered to be dead or moribund.
100% efficacy means that all the fleas were dead or moribund. 0% efficacy means that no fleas were harmed.

[2] = test system: engorged adult female cattle ticks (Boophilus microplus); test: Boophilus microplus injection test; type: in vivo; conditions: application rate 20 μg/animal, assessed after 7 days
Method: Boophilus microplus—Injection Test
Solvent: dimethyl sulphoxide
To produce an appropriate active ingredient formulation, 10 mg of active ingredient are mixed with 0.5 ml of solvent and the concentrate is diluted with solvent to the desired concentration.
1 μl of the active ingredient solution is injected into the abdomen of 5 engorged adult female cattle ticks (Boophilus microplus). The animals are transferred into dishes and kept in a climate-controlled room.
The efficacy is assessed after 7 days by laying of fertile eggs. Eggs which are not visibly fertile are stored in a climate-controlled cabinet until the larvae hatch after about 42 days. An efficacy of 100% means that none of the ticks has laid any fertile eggs; 0% means that all the eggs are fertile.

[3] = test system: southern root-knot nematode (Meloidogyne incognita); test: Meloidogyne incognita test (sand, lettuce, acetone solvent, 14 days); type: in vivo; conditions: Meloidogyne incognita, 336 h; application rate 20 ppm, after 14 days; read-out: nematicidal efficacy (formation of galls)
Outline: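 Active ingredient in acetone diluted with water, added to sand with nematode egg/larvae suspension and lettuce seeds. Efficacy scored after 14 days from root gall formation (100% = no galls; 0% = as untreated control).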

[4] = test system: greenhouse red spider mite (Tetranychus urticae); test: Tetranychus urticae spray test, OP-resistant (bean leaf discs); type: in vivo; conditions: after 6 days
Outline: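 Compound dissolved in acetone/DMF and diluted in water with 1000 ppm alkylaryl polyglycol ether emulsifier, then sprayed on bean leaf discs infested with all stages of OP-resistant T. urticae. Mortality in % scored after 6 days (100% = all mites killed).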

[5] = log P by reversed-phase HPLC analogously to OECD Guideline 117; type: physicochemical; conditions: for chromatographic logP: reversed-phase C18 HPLC column
Outline: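 Retention on reversed-phase C18 HPLC (LC-MS), acidic runs at pH 2.7 with formic acid or trifluoroacetic acid/acetonitrile gradients, neutral runs at pH 7.8 with 0.001 molar ammonium hydrogencarbonate/acetonitrile. log P obtained by linear interpolation of retention times against unbranched alkan-2-ones (C3–C16) of known log P.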

[6] = test system: green peach aphid (Myzus persicae); test: Myzus persicae spray test (bell pepper plants); type: in vivo; conditions: application rate 20 ppm, after 6 days
Method: Myzus persicae—Spray Test
Solvent: 7 parts by weight of dimethylformamide
Emulsifier: alkylaryl polyglycol ether
To produce an appropriate active ingredient formulation, 1 part by weight of active ingredient is dissolved using the specified parts by weight of solvent and made up with water containing an emulsifier concentration of 1000 ppm until the desired concentration is attained. To produce further test concentrations, the preparation is diluted with emulsifier-containing water. If the addition of ammonium salts or/and penetrants is required, these are each added in a concentration of 1000 ppm to the formulation solution.
Bell pepper plants (Capsicum annuum) heavily infested by the green peach aphid (Myzus persicae) are treated by spraying with the active ingredient formulation in the desired concentration.
After 6 days, the kill in % is determined. 100% means that all the aphids have been killed; 0% means that no aphids have been killed.

SMILES	efficacy (fleas dead or moribund) [1] [%]	efficacy (no fertile eggs laid) [2] [%]	pest or weed control at 20 ppm [3] [%]	pest or weed control at 500 g/ha ([4]; Tetranychus urticae, foliar, 144 h, application rate 500 g/ha, read-out: efficacy (spider mites killed)) [%]	chromatographic logP ([5]; pH 2.7, running text, [a] acidic range, pH 2.7, read-out: log P[a])	chromatographic logP ([5]; pH 2.7, table column, [a] acidic range, pH 2.7, formic acid (or trifluoroacetic acid)/acetonitrile, read-out: LogP[a])	efficacy (spider mites killed) ([4]; application rate 100 g/ha) [%]	efficacy (kill of aphids) [6] [%]	LogP[a] ([5]; [a] acidic range, pH 2.7, formic acid (or trifluoroacetic acid)/acetonitrile)	LogP[b] ([5]; [b] neutral range, pH 7.8, ammonium hydrogencarbonate/acetonitrile)
Cc1cc(F)c(-n2ncc(=O)n(C)c2=O)cc1[S+]([O-])CC(F)(F)F (stereo not shown) [Ex. No. 2, 2-{2-Fluoro-4-methyl-5-[(2,2,2-trifluoroethyl)sulphinyl]phenyl}-4-methyl-1,2,4-triazine-3,5(2H,4H)-dione]	100	100	90	90	1.94	1.94				
Cn1c(=O)cnn(-c2ccc(Cl)c(SCC(F)(F)F)c2)c1=O [compound 31]							100	97	3	2.91
